Consider one molecule from US20200010910A1, “Cytotoxic Chemotherapy-Based Predictive Assays for Acute Myeloid Leukemia” (The Regents of The University of California, priority 2017, published 2020).

Usually IC50 stands for the midpoint of a concentration-inhibition curve. Read a low IC50 as inhibition by little substance.

One experiment deals with A549 tumor xenograph. As to the kind of experiment: tumor response to therapeutic carboplatin. As to conditions: resistant A549 xenograph; single IV 37.3 mg/kg; 14 days. The class given is in vivo, nude mice. The source says:
(§1) Xenograft mouse tumors consisting of one carboplatin resistant and one sensitive tumor type were established for in vivo evaluation of carboplatin-DNA monoadduct formation and repair in tumor tissue and for in vivo evaluation of tumor response to therapeutic dosing with carboplatin. Tumor xenografts were established in 1-2 month old nude mice by injecting approximately one million cells into the left and right flanks, and allowed to develop tumors of less than 1 cm^3 over approximately 4 weeks prior to DNA adduct studies. Mice bearing resistant and sensitive tumors were exposed to either a microdose or therapeutic dose of carboplatin by tail vein injection. DNA isolated from tumor tissue was evaluated for carboplatin-DNA monoadduct frequency levels as a function of time. For tumor response, mice bearing resistant and sensitive tumors were therapeutically treated with a single IV injection of 37.3 mg/kg of carboplatin and then examined for tumor growth as assessed by measuring palpable tumors with a caliper and calculating tumor volume.
(§2) Mice xenografted with sensitive (H232A) and resistant (A549) lung cancer cell lines were infused with a therapeutic dose of carboplatin to assess tumor response. The tumors were measured daily over 14 days post infusion (FIG. 10C). Tumor size was normalized as the ratio of tumor diameter to the tumor diameter measured on day 0 (no change=1.0). […]

The subject of another experiment is H23 2A tumor xenograph. Briefly: tumor response to therapeutic carboplatin. As to conditions: sensitive H23 2A xenograph; single IV 37.3 mg/kg; 14 days. The class given is in vivo, nude mice.
Text: as §1, §2

For the next experiment, the system named is PDX Model BL0645. Briefly: drug-DNA adducts in PDX tumor by AMS. In kind it is in vivo, NSG mice. The settings on record: 24 h. The source says:
Female NSG mice (5-8 weeks of age, body weight: 20 to 25 g) were obtained from Jackson Laboratories (CA, USA). All animals were kept under pathogen-free conditions and were allowed to acclimatize for at least 4 days prior to any experiments. PDX models bearing the indicated patient derived xenografts were created by subcutaneous injection at the flank of 1 mm^3 tumor tissue. To establish multiple PDXs to allow efficacy studies with multiple drugs, PDXs from passage 2-4 were minced into 1 mm^3 sections and injected subcutaneously into multiple mice. At least 3 mice were used for each treatment group. Tumors were allowed to grow to at about 100 mm^3 before being assessed for drug sensitivity or the induction of DNA adducts by the administration of a microdose or a therapeutic dose of labeled drug. To assess tumor response to chemotherapy, cisplatin was administered at 2 mg/kg IV every 7 days for a total of 3 cycles, or gemcitabine was administered at 150 mg/kg IP every 7 days for a total of 4 cycles. G/C combination chemotherapy consisted of the simultaneous administration of both drugs using the schema described above. Tumor growth was assessed by measuring palpable tumors with a caliper and calculating tumor volume. Drug-DNA adduct frequencies were measured in tumor tissue collected 24 hours after intravenous injection of labeled drug and stored at −80° C. until DNA isolation. DNA was isolated using a modified Wizard procedure (Promega), quantitated by spectrophotometry, and then stored frozen at −20° C. until AMS analysis. Ten micrograms of DNA per sample was converted to graphite and measured by AMS for 14C quantification as previously described.
NSG mice bearing the indicated PDX tumors were injected with a microdose of ^14C-labeled carboplatin (FIG. 22A) or ^14C-labeled gemcitabine (FIG. 22B). The microdose of ^14C-labeled carboplatin was 0.375 mg/kg carboplatin, 50,000 dpm/g. The microdose of ^14C-labeled gemcitabine was 0.092 mg/kg gemcitabine, 1000 dpm/g. The doses of each drug administered to the mice were chosen to target 1 μM in plasma concentration of carboplatin and 0.3 μM in plasma concentration of gemcitabine. These plasma concentrations represent 1% of the approximate peak plasma concentration during human chemotherapy. Animals were sacrificed after 24 h and drug-DNA adduct frequency was determined from collected tumor tissue by AMS measurements of ^14C in tumor DNA. Carboplatin DNA-adduct levels correlate with PDX model sensitivity to cisplatin at 24 h after microdosing (FIG. 22A). Gemcitabine DNA-adduct levels correlate with PDX model sensitivity to gemcitabine at 24 h after microdosing (FIG. 22B). […] There is no significant difference in carboplatin-DNA monoadduct levels between the three resistant PDX models. […] We conclude that microdose induced carboplatin-DNA monoadducts predicts sensitivity to cisplatin chemotherapy, and microdose induced gemcitabine incorporation predicts sensitivity to gemcitabine chemotherapy.
In this example we test whether gemcitabine/carboplatin (G/Carbo) combination therapy has an effect on the formation of drug-DNA adducts in this synergistic tumor model. In FIG. 23A, NGS mice bearing BL0645 xenographs were administered via tail vein injection a therapeutic dose of [^14C]carboplatin alone or a therapeutic dose of [^14C]carboplatin in combination with a therapeutic dose of gemcitabine. Carboplatin-DNA monoadducts were measured in tumor tissue 24 h after dosing. A therapeutic dose of the combination [^14C]carboplatin plus unlabeled gemcitabine leads to a significant increase in carboplatin-DNA monoadduct level (94.84±16.02 versus 209.6±64.66 adducts per 10^8 nucleotides, p=0.032) compared to treatment with carboplatin alone. In FIG. 23B, the same experiment was conducted in which the mice received a therapeutic dose of [^14C]gemcitabine alone or a therapeutic dose of [^14C]gemcitabine in combination with a therapeutic dose of unlabeled carboplatin. […]

The subject of a further experiment is Hs 578T. As to the kind of experiment: MTT assay, carboplatin cytotoxicity. In kind it is cell-based, human. As to conditions: 72 hours. How it is done:
(§3) Six breast cancer cell lines were tested. […] The cell lines were purchased from ATCC, and cultured in the recommended media. IC50 values were determined for each cell line using the MTT assay (Henderson et al., International Journal of Cancer 2011) after incubating cells for 72 hours with different concentrations of carboplatin. [^14C] carboplatin (53 mCi/mmol) was purchased from the GE Healthcare (Waukesha, Wis.) and further purified at Moravek Biochemical (Brea, Calif.). Unlabeled carboplatin (USP Pharmaceutical Grade) was used to minimize the usage of radiocarbon and achieve the specific activities required for microdoses and therapeutic doses.

Another experiment concerns MDA MB 468. As to the kind of experiment: MTT assay, carboplatin cytotoxicity. The class given is cell-based, human. The settings on record: 72 hours. As for the experimental part: as §3
(Formazan colour is commonly taken as a measure of viable cells.)

For a further experiment, the system named is BT 549. As to the kind of experiment: MTT assay, carboplatin cytotoxicity. In kind it is cell-based, human. The settings on record: 72 hours. How it is done: as §3
A further experiment concerns T47D. Briefly: MTT assay, carboplatin cytotoxicity. The class given is cell-based, human. As to conditions: 72 hours. As for the experimental part: as §3
The next experiment relates to MDA MB 231. As to the kind of experiment: MTT assay, carboplatin cytotoxicity. The class given is cell-based, human. As to conditions: 72 hours. How it is done: as §3
A further experiment concerns MCF-7. Briefly: MTT assay, carboplatin cytotoxicity. In kind it is cell-based, human. The settings on record: 72 hours. As for the experimental part:
as §3

As for `N.N.O=C([O-])C1(C(=O)[O-])CCC1.[Pt+2]` [carboplatin], the entries for the “tumor response (growth after chemotherapy)” value with A549 tumor xenograph and with H23 2A tumor xenograph were “continued to grow” and “did not display any growth”, respectively. The “mean carboplatin-DNA monoadduct level” value in the experiment with PDX Model BL0645 (microdose 0.375 mg/kg carboplatin alone or with gemcitabine 0.092 mg/kg) is 1.27±0.307 adducts per 10^8 nucleotides. Further, the carboplatin-DNA monoadduct level with PDX Model BL0645 (therapeutic 37.5 mg/kg carboplatin alone or with gemcitabine 9.2 mg/kg) is reported as 94.84±16.02 adducts per 10^8 nucleotides. Besides, the IC50 worked out at 44 µM in the experiment with Hs 578T; 44 µM in the experiment on MDA MB 468; 68 µM with BT 549; 250 µM in the experiment on T47D; 250 µM in the experiment with MDA MB 231; 137 µM with MCF-7.
